Results: patent US8183380B2, “2-aminoquinolines” (Hoffmann-La Roche Inc., priority 2008, dated 2012)

target: T1, recombinant human 5-HT5A receptor (Homo sapiens, UniProt P47898); assay: [3H]LSD radioligand binding assay; conditions: [3H]LSD (approximately 1 nM); membranes from transiently expressed 5-HT5A receptors in HEK-EBNA cells; Ki from IC50 by Cheng-Prussoff equation
T1 construct: expressed in transfected cells; host or cells: HEK-EBNA (Human Embryonic Kidney-EBNA) cells, transient cDNA expression; membranes
Experimental: A [^3H]LSD radioligand binding assay was used to determine the affinity of the compounds for the recombinant human 5-HT5A receptor, in membranes from transiently (cDNA) expressed 5-HT5A receptors in Human Embryonic Kidney-EBNA (HEK-EBNA) cells. Assay buffer consisted of Tris (50 mM) buffer containing 1 mM EGTA, 10 mM MgCl2 (pH 7.4) and 10 μM pargyline. The binding assay was carried out in 96-well-plates in the presence of [^3H]LSD (approximately 1 nM), approximately 2 μg/well of membrane protein, and 0.5 mg of Ysi-poly-1-lysine SPA beads in a final volume of 200 μl of buffer. Non-specific binding was defined using methiothepin 2 μM. Compounds were tested at 10 concentrations. All assays were conducted in duplicate and repeated at least two times. Assay plates were incubated for 120 min at room temperature before centrifugation. Bound ligand was determined using a Packard Topcount scintillation counter. IC50 values were calculated using a non-linear curve fitting program and Ki values calculated using the Cheng-Prussoff equation.

T1 sequence (P47898 whole entry): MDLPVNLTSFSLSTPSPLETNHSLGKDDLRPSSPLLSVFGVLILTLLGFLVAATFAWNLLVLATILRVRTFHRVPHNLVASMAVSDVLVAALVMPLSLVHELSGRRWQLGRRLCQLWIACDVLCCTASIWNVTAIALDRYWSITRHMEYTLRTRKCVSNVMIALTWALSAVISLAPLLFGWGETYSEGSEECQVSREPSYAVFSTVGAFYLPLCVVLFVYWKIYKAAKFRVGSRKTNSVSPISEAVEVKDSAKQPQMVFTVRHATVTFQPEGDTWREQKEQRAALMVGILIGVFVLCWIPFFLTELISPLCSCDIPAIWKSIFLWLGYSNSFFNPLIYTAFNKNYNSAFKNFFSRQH

Row | Structure (SMILES) | Ki
1 | CN1CCC(NC(=O)Nc2ccc3nc(NC4COc5ccccc54)ccc3c2)CC1 (racemic) [Example 35, rac-1-[2-(2,3-Dihydro-benzofuran-3-ylamino)-quinolin-6-yl]-3-(1-methyl-piperidin-4-yl)-urea] | 9.6 nM
2 | COc1cccc2c1C(Nc1ccc3cc(NC(=O)NC4CCN(C)CC4)ccc3n1)CC2 (racemic) [Example 40, rac-1-[2-(7-Methoxy-indan-1-ylamino)-quinolin-6-yl]-3-(1-methyl-piperidin-4-yl)-urea] | 2.2 nM
3 | COCCN1CCC(NC(=O)Nc2ccc3nc(NC4CCc5cccc(OC)c54)ccc3c2)CC1 (racemic) [Example 45, rac-1-[1-(2-Methoxy-ethyl)-piperidin-4-yl]-3-[2-(7-methoxy-indan-1-ylamino)-quinolin-6-yl]-urea] | 3 nM
4 | COc1cccc2c1C(Nc1ccc3cc(NC(=O)NC4CCN(CCF)CC4)ccc3n1)CC2 (racemic) [Example 46, rac-1-[1-(2-Fluoro-ethyl)-piperidin-4-yl]-3-[2-(7-methoxy-indan-1-ylamino)-quinolin-6-yl]-urea] | 2.7 nM
5 | COc1cccc2c1C(Nc1ccc3cc(NC(=O)NC4CCN(CCC(F)(F)F)CC4)ccc3n1)CC2 (racemic) [Example 47, rac-1-[2-(7-Methoxy-indan-1-ylamino)-quinolin-6-yl]-3-[1-(3,3,3-trifluoro-propyl)-piperidin-4-yl]-urea] | 3 nM
6 | COc1cccc2c1C(Nc1ccc3cc(NC(=O)NC4CC5CCCC(C4)N5C)ccc3n1)CC2 (racemic) [Example 50, rac-1-[2-(7-Methoxy-indan-1-ylamino)-quinolin-6-yl]-(9-methyl-9-aza-bicyclo[3.3.1]non-3-yl)-urea] | 5.2 nM
7 | COc1cccc2c1C(Nc1ccc3cc(NC(=O)NC4CCN(CCSC)CC4)ccc3n1)CC2 (racemic) [Example 51, rac-1-[2-(7-Methoxy-indan-1-ylamino)-quinolin-6-yl]-3-[1-(2-methylsulfanyl-ethyl)-piperidin-4-yl]-urea] | 3.9 nM
8 | COc1cccc2c1C(Nc1ccc3cc(NC(=O)NC4CCN(C(=O)CC(F)(F)F)CC4)ccc3n1)CC2 (racemic) [Example 52, rac-1-[2-(7-Methoxy-indan-1-ylamino)-quinolin-6-yl]-3-[1-(3,3,3-trifluoro-propionyl)-piperidin-4-yl]-urea] | 7.5 nM
9 | COc1cccc2c1C(Nc1ccc3cc(NC(=O)NC4CCN(C5CC5)CC4)ccc3n1)CC2 (racemic) [Example 53, rac-1-(1-Cyclopropyl-piperidin-4-yl)-3-[2-(7-methoxy-indan-1-ylamino)-quinolin-6-yl]-urea] | 3.1 nM
10 | COc1cccc2c1C(Nc1ccc3cc(NC(=O)NC4CCN(C5CC5)CC4)ccc3n1)CCC2 (racemic) [Example 55, rac-1-(1-Cyclopropyl-piperidin-4-yl)-3-[2-(8-methoxy-1,2,3,4-tetrahydro-naphthalen-1-ylamino)-quinolin-6-yl]-urea] | 9.7 nM
11 | COc1cccc2c1C(Nc1ccc3cc(NC(=O)NC4CCN(C)CC4)ccc3n1)CCC2 (racemic) [Example 57, rac-1-[2-(8-Methoxy-1,2,3,4-tetrahydro-naphthalen-1-ylamino)-quinolin-6-yl]-3-(1-methyl-piperidin-4-yl)-urea] | 5.8 nM
12 | COCCN1CCC(NC(=O)Nc2ccc3nc(NC4CCCc5cccc(OC)c54)ccc3c2)CC1 (racemic) [Example 58, rac-1-[1-(2-Methoxy-ethyl)-piperidin-4-yl]-3-[2-(8-methoxy-1,2,3,4-tetrahydro-naphthalen-1-ylamino)-quinolin-6-yl]-urea] | 5.3 nM
13 | COc1cccc2c1C(Nc1ccc3cc(NC(=O)NC4CCN(CCF)CC4)ccc3n1)CCC2 (racemic) [Example 59, rac-1-[1-(2-Fluoro-ethyl)-piperidin-4-yl]-3-[2-(8-methoxy-1,2,3,4-tetrahydro-naphthalen-1-ylamino)-quinolin-6-yl]-urea] | 5.9 nM
14 | COc1cccc2c1C(Nc1ccc3cc(NS(=O)(=O)N(C)C)ccc3n1)CC2 (racemic) [Example 68, rac-N′-{2-[(7-methoxy-2,3-dihydro-1H-inden-1-yl)amino]quinolin-6-yl}-N,N-dimethylsulfamide] | 2.5 nM
15 | CC(C)N1CCC(NC(=O)Nc2ccc3nc(NC4CCc5cc(F)ccc54)ccc3c2)CC1 (racemic) [Example 115, rac-1-[2-(5-Fluoro-indan-1-ylamino)-quinolin-6-yl]-3-(1-isopropyl-piperidin-4-yl)-urea] | 4 nM
16 | COc1cc(C)cc2c1C(Nc1ccc3cc(NC(=O)NC4CCN(C)CC4)ccc3n1)CC2 (racemic) [Example 131, rac-1-[2-(7-Methoxy-5-methyl-indan-1-ylamino)-quinolin-6-yl]-3-(1-methyl-piperidin-4-yl)-urea] | 2.9 nM
17 | COc1cccc2c1C(Nc1ccc3cc(NC(=O)CN4CCN(C)CC4)ccc3n1)CC2 (racemic) [Example 139, rac-N-[2-(7-Methoxy-indan-1-ylamino)-quinolin-6-yl]-2-(4-methyl-piperazin-1-yl)-acetamide] | 4.4 nM
18 | O=C(Nc1ccc2nc(NC3CCc4cc(F)ccc43)ccc2c1)C1CC1 (racemic) [Example 141, rac-Cyclopropanecarboxylic acid [2-(5-fluoro-indan-1-ylamino)-quinolin-6-yl]-amide] | 8.6 nM
19 | CC(C)N1CCC(NC(=O)Nc2ccc3nc(NC4CCc5ccc(F)cc54)ccc3c2)CC1 (racemic) [Example 155, rac-1-[2-(6-Fluoro-indan-1-ylamino)-quinolin-6-yl]-3-(1-isopropyl-piperidin-4-yl)-urea] | 6.3 nM
20 | COc1cccc2c1C(Nc1ccc3cc(N)ccc3n1)CC2 (racemic) [Example 172, rac-N^2-(7-Methoxy-indan-1-yl)-quinoline-2,6-diamine] | 3.3 nM
21 | COc1cccc2c1C(Nc1ccc3cc(NC(=O)N(C)C4CCN(C(C)C)CC4)ccc3n1)CC2 (racemic) [Example 179, rac-1-(1-Isopropyl-piperidin-4-yl)-3-[2-(7-methoxy-indan-1-ylamino)-quinolin-6-yl]-1-methyl-urea] | 7.1 nM
22 | COc1cccc2c1C(Nc1ccc3cc(NC(=O)NC4CCN(C(C)C)CC4)ccc3n1)CO2 (racemic) [Example 180, rac-1-(1-Isopropyl-piperidin-4-yl)-3-[2-(4-methoxy-2,3-dihydro-benzofuran-3-ylamino)-quinolin-6-yl]-urea] | 2.8 nM
23 | CCOc1cccc2c1C(Nc1ccc3cc(NC(=O)NC4CCN(C(C)C)CC4)ccc3n1)CO2 (racemic) [Example 181, rac-1-[2-(4-Ethoxy-2,3-dihydro-benzofuran-3-ylamino)-quinolin-6-yl]-3-(1-isopropyl-piperidin-4-yl)-urea] | 4.1 nM

The remaining lines, values ahead:

Row | Ki | Structure (SMILES)
24 | 1.5 nM | COc1cccc2c1C(Nc1ccc3cc(NC(=O)NC(C)C)ccc3n1)CC2 (racemic) [Example 12, rac-1-Isopropyl-3-[2-(7-methoxy-indan-1-ylamino)-quinolin-6-yl]-urea]
25 | 7.7 nM | COc1cccc2c1C(Nc1ccc3cc(NC(=O)NC(C)C)ccc3n1)CCC2 (racemic) [Example 15, rac-1-Isopropyl-3-[2-(8-methoxy-1,2,3,4-tetrahydro-naphthalen-1-ylamino)-quinolin-6-yl]-urea]
26 | 3 nM | COc1cccc2c1C(Nc1ccc3cc(NC(=O)NC4CCN(C(C)C)CC4)ccc3n1)CC2 (racemic) [Example 44, rac-1-(1-Isopropyl-piperidin-4-yl)-3-[2-(7-methoxy-indan-1-ylamino)-quinolin-6-yl]-urea]
27 | 8.7 nM | COc1ccc(C)c2c1C(Nc1ccc3cc(NC(=O)NC(C)C)ccc3n1)CC2 (racemic) [Example 93, rac-1-Isopropyl-3-[2-(7-methoxy-4-methyl-indan-1-ylamino)-quinolin-6-yl]-urea]
28 | 4.4 nM | CC(C)NC(=O)Nc1ccc2nc(NC3CCc4cc(F)ccc43)ccc2c1 (racemic) [Example 107, rac-1-[2-(5-Fluoro-indan-1-ylamino)-quinolin-6-yl]-3-isopropyl-urea]
29 | 3.4 nM | COc1cc(C)cc2c1C(Nc1ccc3cc(NC(=O)NC(C)C)ccc3n1)CC2 (racemic) [Example 130, rac-1-Isopropyl-3-[2-(7-methoxy-5-methyl-indan-1-ylamino)-quinolin-6-yl]-urea]
30 | 2.2 nM | COc1cccc2c1C(Nc1ccc3cc(NC(=O)C4CC4)ccc3n1)CC2 (racemic) [Example 140, rac-Cyclopropanecarboxylic acid [2-(7-methoxy-indan-1-ylamino)-quinolin-6-yl]-amide]
31 | 6.1 nM | CC(C)NC(=O)Nc1ccc2nc(NC3CCc4cccc(F)c43)ccc2c1 (racemic) [Example 146, rac-1-[2-(7-Fluoro-indan-1-ylamino)-quinolin-6-yl]-3-isopropyl-urea]
32 | 3.8 nM | CC(C)N1CCC(NC(=O)Nc2ccc3nc(NC4CCc5cccc(F)c54)ccc3c2)CC1 (racemic) [Example 156, rac-1-[2-(7-Fluoro-indan-1-ylamino)-quinolin-6-yl]-3-(1-isopropyl-piperidin-4-yl)-urea]
33 | 8.3 nM | O=C(Nc1ccc2nc(NC3CCc4cccc(F)c43)ccc2c1)C1CC1 (racemic) [Example 162, rac-Cyclopropanecarboxylic acid [2-(7-fluoro-indan-1-ylamino)-quinolin-6-yl]-amide]
